Test system: GFP+ bone marrow cells in the viable tumor rim of LLC tumors
Test: Homing/invasion of GFP+ bone marrow cells (CEPs) to the viable tumor rim and incorporation into CD31+ tumor vasculature, confocal microscopy of LLC tumor sections
Type: in vivo, mice
Conditions: 3 days after treatment
From the text: Integrin ∘4β1 (VLA4) promotes the homing of circulating cells to the α4β1 ligand binding (VCAM) expressed at the tumor site (Jin et al. 2006. J Clin Invest 116:652-662). […] We determined whether α4β1 integrin contributes to CEP and possibly other types of bone-marrow pro-angiogenic cell invasion and homing to the viable tumor rim after VDA treatment. To this end, green fluorescent protein (GFP)positive bone marrow cells obtained from syngeneic UBI/GFP/BL6 donor mice (The Jackson Laboratory, Bar Harbor, Me.) were transplanted into lethally irradiated C57Bl/6 recipient mice (as described in Theise, et al. 2000. Hepatology 31:235-240). Three weeks later, mice were subcutaneously (s.c.) implanted with 0.5×10^6 Lewis Lung Carcinoma (LLC) cells (ATCC, Manassas, Va.).
When tumors reached 500 mm^3, mice were treated with an integrin α4β1 specific blocking antibody (Jin 2006), CA1P, or a combination of the two agents. After 3 days, tumor volumes were measured, mice were sacrificed and tumors were removed for the evaluation of necrosis (FIG. 1A) and incorporation of bone marrow cells to the tumor vasculature (FIG. 1B). […] FIG. 1C provides tumor volumes measured three days after treatment and normalized to untreated control tumors. *: 0.05>p>0.01; **: p<0.01. Tumor size was assessed with Vernier calipers by using the formula width^2×length×0.5. […]

With COc1cc(/C=C\c2ccc(OC)c(OP(=O)(O)O)c2OP(=O)(O)O)cc(OC)c1OC [CA1P, combretastatin A-1 diphosphate] the “invasion/homing of GFP+ cells (bone marrow cells) in the viable tumor rim (FIG. 1B)” value was “massive invasion of GFP^+ cells” and the “incorporation of GFP+ cells into blood vessels (colocalization of GFP+ and CD31+ cells, FIG. 1B)” value (CD31 staining) was “some of which were found to incorporate into blood vessels”.
